Test results taken from patent US4283329A, “Pharmacologically active peptides” (Eli Lilly and Company, priority 1979, dated 1981).
Where a SMILES comes first, the peptide text is derived from it. [ ]: non-standard residue; d: D form. Phe(4-F) = N[C@@H](Cc1ccc(F)cc1)C(=O)O; NMeM = CN[C@@H](CCSC)C(=O)O

How the values were obtained:
[1] = administered parenterally; cited from earlier work
[2] = test system: mouse; assay: mouse hot plate test (analgesic activity); type: in vivo; settings: subcutaneous, hot plate 52° C., 15 minutes after administration, latency until jump
Description: In this test, a mouse is placed inside on upright acrylic cylinder comprising, as its base, a hot plate surface which is maintained at 52° C. The mouse is given, orally or by subcutaneous injection, a predetermined amount of test compound dissolved or suspended in a suitable carrier, and, 15 minutes after administration of the test compound, the mouse is placed on the hot plate surface. The latency in seconds until the mouse jumps from the hot plate surface is measured. […] This must occur in a dose range which produces no motor incoordination or incapacitation. The following Table records the ED50 results obtained from this test.

Row | Molecule | analgesic activity [1] | Analgesic Activity, Hot Plate Test, ED50 [2]
1 | H-Tyr-Gly-Gly-Phe-Met-OH [methionine enkephalin] | practically devoid of any useful analgesic activity | –
2 | COc1ccc([C@H](NC(=O)[C@H](Cc2ccc(F)cc2)NC(=O)CNC(=O)[C@@H](C)NC(=O)[C@@H](N)Cc2ccc(O)cc2)C(N)=O)cc1 [Example 2, L-Tyrosyl-D-alanyl-glycyl-L-p-fluorophenylalanyl-L-p-methoxyphenylglycinamide] | – | 1.04 mg/kg
3 | H-Tyr-Gly-Gly-Phe-Leu-OH [leucine enkephalin] | practically devoid of any useful analgesic activity | –
4 | C[C@@H](NC(=O)[C@@H](N)Cc1ccc(O)cc1)C(=O)NCC(=O)N[C@@H](Cc1ccc(F)cc1)C(=O)N[C@@H](C(N)=O)c1ccccc1 [Example 3 D-Pgl, L-Tyrosyl-D-alanyl-glycyl-L-p-fluorophenylalanyl-D-phenylglycinamide] | – | 0.103 mg/kg
5 | C[C@@H](NC(=O)[C@@H](N)Cc1ccc(O)cc1)C(=O)NCC(=O)N[C@@H](Cc1ccc(F)cc1)C(=O)N[C@H](C(N)=O)c1ccccc1 [Example 3 L-Pgl, L-Tyrosyl-D-alanyl-glycyl-L-p-fluorophenylalanyl-L-phenylglycinamide] | – | 0.063 mg/kg
6 | CSCC[C@@H](C(N)=O)N(C)C(=O)[C@H](Cc1ccc(F)cc1)NC(=O)CNC(=O)[C@H](NC(=O)[C@@H](N)Cc1ccc(O)cc1)[C@H](C)O [Example 4, L-Tyrosyl-D-threonylglycyl-L-p-fluorophenylalanyl-L-(N^α -methyl)methioninamide] (H-Y[dT]G[Phe(4-F)][NMeM]-NH2) | – | 0.088 mg/kg
7 | CSCC[C@@H](C(N)=O)N(C)C(=O)[C@H](Cc1ccc(F)cc1)NC(=O)CNC(=O)[C@@H](C)NC(=O)[C@@H](N)Cc1ccc(O)cc1 [Example 1, L-Tyrosyl-D-alanyl glycyl-L-p-fluorophenylalanyl-L-(N^α -methyl)methionin amide] | – | 0.023 mg/kg
